“And” between values parts separate entries of the source, which are not always exact repeats. Identical values can stand only once. Toxic doses and inconclusive results are not listed. Rule for the calls: active = survival T/C of 150% or more; inactive = T/C below 125% in these data.
Test system: CD2F1 mice, L1210 leukemia ip, survival T/C
Assay: NCI In Vivo Anticancer Drug Screen. Data for tumor model L1210 Leukemia (intraperitoneal) in CD2F1 (CDF1) mice
Settings: higher = longer survival
How it was run: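 Activity against a transplanted murine tumor was judged by comparing the compound group with a vehicle group. The outcome in the treated animals was divided by that in the controls.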

[1] = endpoint: mean survival time, dose: 50.0 mg/kg/injection, schedule: Q01DX009 (ip), vehicle: saline with Tween-80
[2] = endpoint: mean survival time, dose: 100.0 mg/kg/injection, schedule: Q01DX009 (ip), vehicle: saline with Tween-80
[3] = endpoint: mean survival time, dose: 200.0 mg/kg/injection, schedule: Q01DX009 (ip), vehicle: saline with Tween-80
[4] = endpoint: mean survival time, dose: 100.0 mg/kg/injection, schedule: Q01DX001 (ip), vehicle: saline with Tween-80
[5] = endpoint: mean survival time, dose: 200.0 mg/kg/injection, schedule: Q01DX001 (ip), vehicle: saline with Tween-80
[6] = endpoint: mean survival time, dose: 400.0 mg/kg/injection, schedule: Q01DX001 (ip), vehicle: saline with Tween-80
[7] = endpoint: mean survival time, dose: 100.0 mg/kg/injection, schedule: Q04DX003 (ip), vehicle: saline with Tween-80
[8] = endpoint: mean survival time, dose: 200.0 mg/kg/injection, schedule: Q04DX003 (ip), vehicle: saline with Tween-80
[9] = endpoint: mean survival time, dose: 50.0 mg/kg/injection, schedule: Q01DX009 (ip), vehicle: Klucel (hydroxypropylcellulose) (HPC)
[10] = endpoint: mean survival time, dose: 100.0 mg/kg/injection, schedule: Q01DX009 (ip), vehicle: Klucel (hydroxypropylcellulose) (HPC)
[11] = endpoint: mean survival time, dose: 100.0 mg/kg/injection, schedule: Q04DX002 (ip), vehicle: saline with Tween-80
[12] = endpoint: mean survival time, dose: 200.0 mg/kg/injection, schedule: Q04DX002 (ip), vehicle: saline with Tween-80
[13] = endpoint: mean survival time, dose: 400.0 mg/kg/injection, schedule: Q04DX002 (ip), vehicle: saline with Tween-80
[14] = endpoint: mean survival time, dose: 400.0 mg/kg/injection, schedule: Q01DX009 (ip), vehicle: saline with Tween-80
[15] = endpoint: mean survival time, dose: 100.0 mg/kg/injection, schedule: Q01DX001 (ip), vehicle: saline
[16] = endpoint: mean survival time, dose: 200.0 mg/kg/injection, schedule: Q01DX001 (ip), vehicle: saline

Measured: T/C

CCCCC(CC)CNCCOC(=O)c1ccc([N+](=O)[O-])cc1 (configuration not stated)
inactive: endpoint: mean survival time, dose: 75.0 mg/kg/injection, schedule: Q01DX001 (ip), vehicle: saline 97 % of control | endpoint: mean survival time, dose: 150.0 mg/kg/injection, schedule: Q01DX001 (ip), vehicle: saline 100 % of control | endpoint: mean survival time, dose: 300.0 mg/kg/injection, schedule: Q01DX001 (ip), vehicle: saline 102 % of control

COc1cc(Cl)ccc1NC(=O)Oc1c(Cl)cccc1Cl
inactive: [1] 104 % of control | [2] 100 % of control | [3] 100 % of control

CC12CC1(C)C(=O)OC2=O (configuration not stated)
inactive: [1] 96 % of control | [2] 95 % of control | [3] 96 % of control

c1ccc(-c2n[nH]c3ccccc23)cc1
inactive: endpoint: median survival time, dose: 50.0 mg/kg/injection, schedule: Q04DX002 (ip), vehicle: saline with Tween-80 100 % of control | endpoint: median survival time, dose: 100.0 mg/kg/injection, schedule: Q04DX002 (ip), vehicle: saline with Tween-80 100 % of control | endpoint: median survival time, dose: 200.0 mg/kg/injection, schedule: Q04DX002 (ip), vehicle: saline with Tween-80 100 % of control

CCOc1ccc(C(=O)OC(CN(CC)CC)c2ccccc2)cc1 (configuration not stated)
inactive: endpoint: mean survival time, dose: 25.0 mg/kg/injection, schedule: Q04DX003 (ip), vehicle: saline 102 % of control | endpoint: mean survival time, dose: 50.0 mg/kg/injection, schedule: Q04DX003 (ip), vehicle: saline 102 % of control | endpoint: mean survival time, dose: 100.0 mg/kg/injection, schedule: Q04DX003 (ip), vehicle: saline 89 % of control

O=C1c2cc(Cl)ccc2OCC1Cl (configuration not stated)
inactive: [4] 87 % of control | [5] 91 % of control | [6] 93 % of control

COc1ccc(-c2nc3c(N)nc(N)nc3nc2N)cc1OC
inactive: endpoint: mean survival time, dose: 12.5 mg/kg/injection, schedule: Q01DX009 (ip), vehicle: water 105 % of control | endpoint: mean survival time, dose: 25.0 mg/kg/injection, schedule: Q01DX009 (ip), vehicle: water 103 % of control | endpoint: mean survival time, dose: 50.0 mg/kg/injection, schedule: Q01DX009 (ip), vehicle: water 103 % of control | endpoint: mean survival time, dose: 100.0 mg/kg/injection, schedule: Q01DX009 (ip), vehicle: water 98 % of control | endpoint: mean survival time, dose: 200.0 mg/kg/injection, schedule: Q01DX009 (ip), vehicle: water 88 % of control

c1ccc(COCCOc2ccccc2)cc1
inactive: [7] 96 % of control | [8] 98 % of control | endpoint: mean survival time, dose: 400.0 mg/kg/injection, schedule: Q04DX003 (ip), vehicle: saline with Tween-80 102 % of control

c1ccc([P+](c2ccccc2)(c2ccccc2)C2CCC2)cc1
inactive: endpoint: mean survival time, dose: 9.4 mg/kg/injection, schedule: Q04DX003 (ip), vehicle: saline 97 % of control | endpoint: mean survival time, dose: 18.8 mg/kg/injection, schedule: Q04DX003 (ip), vehicle: saline 102 % of control | endpoint: mean survival time, dose: 37.5 mg/kg/injection, schedule: Q04DX003 (ip), vehicle: saline 102 % of control

CC1(C(=O)O)CCCC2(C)c3cc(O)ccc3CCC12 (configuration not stated)
inactive: [9] 94 % of control | [10] 90 % of control

O=Cc1ccc(O)c(Cl)c1
inactive: [4] 96 % of control | [5] 104 % of control | [6] 93 % of control

Cc1ccc(CNC2=C(Cl)C(=O)c3ccccc3C2=O)cc1
inactive: endpoint: mean survival time, dose: 6.25 mg/kg/injection, schedule: Q04DX003 (ip), vehicle: saline with Tween-80 95 % of control | endpoint: mean survival time, dose: 12.5 mg/kg/injection, schedule: Q04DX003 (ip), vehicle: saline with Tween-80 98 % of control | endpoint: mean survival time, dose: 25.0 mg/kg/injection, schedule: Q04DX003 (ip), vehicle: saline with Tween-80 94 % of control and 97 % of control

CCOC(=O)/C=C(C)/C=C/C=C(/C)CCC=C(C)C
inactive: [11] 100 % of control | [12] 100 % of control | [13] 92 % of control

COc1ccc(NC(=O)Nc2ccccc2OC)c(OC)c1
inactive: [11] 94 % of control | [12] 94 % of control | [13] 87 % of control

O=[N+]([O-])c1ccc(C(F)(F)F)cc1
inactive: [7] 104 % of control | [8] 102 % of control

CC(=O)CCC(=O)OCc1ccccc1
inactive: endpoint: mean survival time, dose: 25.0 mg/kg/injection, schedule: Q01DX009 (ip), vehicle: saline with Tween-80 102 % of control | [1] 96 % of control | [2] 108 % of control | [3] 101 % of control | [14] 98 % of control

CC(=O)Nc1ccccc1C(C)=O
inactive: [2] 110 % of control | [3] 109 % of control

Cc1c(C)c(C)c(CCl)c(C)c1C
inactive: [1] 103 % of control | [2] 103 % of control

O=C1CCCc2c1[nH]c1ccccc21
inactive: [2] 94 % of control | [3] 104 % of control | [14] 102 % of control

CC(=O)N/N=C1\CC2CCC1(C)C2(C)C (configuration not stated)
inactive: [15] 102 % of control | [16] 102 % of control | endpoint: mean survival time, dose: 400.0 mg/kg/injection, schedule: Q01DX001 (ip), vehicle: saline 98 % of control

CN(C)C(=S)SCc1ccccc1
inactive: endpoint: mean survival time, dose: 100.0 mg/kg/injection, schedule: Q04DX003 (ip), vehicle: other 111 % of control | endpoint: mean survival time, dose: 200.0 mg/kg/injection, schedule: Q04DX003 (ip), vehicle: other 103 % of control | endpoint: mean survival time, dose: 400.0 mg/kg/injection, schedule: Q04DX003 (ip), vehicle: other 112 % of control

CC[n+]1ccc(Nc2ccc(/C=C/c3ccc4cc(Nc5cc[n+](CC)cc5)ccc4[n+]3CC)cc2)cc1
inactive: endpoint: mean survival time, dose: 2.5 mg/kg/injection, schedule: Q01DX009 (oral), vehicle: saline 98 % of control | endpoint: mean survival time, dose: 5.0 mg/kg/injection, schedule: Q01DX009 (oral), vehicle: saline 102 % of control | endpoint: mean survival time, dose: 10.0 mg/kg/injection, schedule: Q01DX009 (oral), vehicle: saline 88 % of control

Cc1csc(NC(=O)Nc2ccc(F)cc2[N+](=O)[O-])n1
inactive: endpoint: mean survival time, dose: 12.5 mg/kg/injection, schedule: Q01DX009 (ip), vehicle: saline 103 % of control | endpoint: mean survival time, dose: 25.0 mg/kg/injection, schedule: Q01DX009 (ip), vehicle: saline 112 % of control | endpoint: mean survival time, dose: 50.0 mg/kg/injection, schedule: Q01DX009 (ip), vehicle: saline 103 % of control

CC(=O)O.[Tl]
inactive: endpoint: mean survival time, dose: 20.0 mg/kg/injection, schedule: Q01DX001 (ip), vehicle: saline 112 % of control | endpoint: mean survival time, dose: 80.0 mg/kg/injection, schedule: Q01DX001 (ip), vehicle: saline 97 % of control | [15] 100 % of control | [16] 100 % of control

CCOC(=O)c1c(C)c2c(n1C)CCCC2=O
inactive: [11] 93 % of control | [12] 89 % of control | [13] 86 % of control

CC(=O)NC(CC(=O)O)C(=O)NNC(=O)c1ccccc1O (configuration not stated)
inactive: endpoint: mean survival time, dose: 25.0 mg/kg/injection, schedule: Q01DX009 (ip), vehicle: Klucel (hydroxypropylcellulose) (HPC) 108 % of control | [9] 115 % of control | [10] 104 % of control

CCOC(=O)C(CCP(=O)(OCC)OCC)NC(=O)c1ccc(N(C)Cc2cnc3nc(N)nc(N)c3n2)cc1 (configuration not stated)
inactive: endpoint: median survival time, dose: 0.38 mg/kg/injection, schedule: Q01DX009 (ip), vehicle: saline 101 % of control | endpoint: median survival time, dose: 0.75 mg/kg/injection, schedule: Q01DX009 (ip), vehicle: saline 102 % of control | endpoint: median survival time, dose: 1.5 mg/kg/injection, schedule: Q01DX009 (ip), vehicle: saline 102 % of control | endpoint: median survival time, dose: 3.0 mg/kg/injection, schedule: Q01DX009 (ip), vehicle: saline 102 % of control | endpoint: median survival time, dose: 6.0 mg/kg/injection, schedule: Q01DX009 (ip), vehicle: saline 101 % of control | endpoint: median survival time, dose: 12.0 mg/kg/injection, schedule: Q01DX009 (ip), vehicle: saline 102 % of control

CC1OCOC(C)C1C (configuration not stated)
inactive: endpoint: mean survival time, dose: 50.0 mg/kg/injection, schedule: Q01DX005 (ip), vehicle: saline 108 % of control | [1] 91 % of control | endpoint: mean survival time, dose: 50.0 mg/kg/injection, schedule: Q04DX002 (ip), vehicle: saline + alcohol 103 % of control | endpoint: mean survival time, dose: 100.0 mg/kg/injection, schedule: Q01DX005 (ip), vehicle: saline 108 % of control | [2] 91 % of control | endpoint: mean survival time, dose: 100.0 mg/kg/injection, schedule: Q04DX002 (ip), vehicle: saline + alcohol 95 % of control | endpoint: mean survival time, dose: 200.0 mg/kg/injection, schedule: Q01DX005 (ip), vehicle: saline 108 % of control | [3] 91 % of control | endpoint: mean survival time, dose: 200.0 mg/kg/injection, schedule: Q04DX002 (ip), vehicle: saline + alcohol 88 % of control | endpoint: mean survival time, dose: 400.0 mg/kg/injection, schedule: Q01DX005 (ip), vehicle: saline 102 % of control | [14] 98 % of control | endpoint: mean survival time, dose: 400.0 mg/kg/injection, schedule: Q04DX002 (ip), vehicle: saline + alcohol 95 % of control
